This test concerns Smad binding element (SBE) luciferase reporter activity in TGFβ1 stimulated NIH-3T3 cells. The test can be described thus: ALK-5 gene reporter assay: Smad binding element (SBE) luciferase reporter in TGFβ1 stimulated NIH-3T3 cells. Particulars: Mus musculus, NIH3T3.

For orientation: IC50 means the concentration that gives 50% inhibition. A higher IC50 goes with weaker potency in that assay. As for `CCc1cnn(-c2cccc(C)n2)c1-c1cc2cnccc2s1` [Example 4, 2-[4-ethyl-1-(6-methylpyridin-2-yl)-1H-pyrazol-5-yl]thieno[3,2-c]pyridine], the IC50 turned out to be 21.5 nM.

For the origin of these results see patent US9090625B2, “Therapeutic pyrazolyl thienopyridines” (Thesan Pharmaceuticals, Inc., priority 2006, dated 2015).
